Measurements reported in patent EP0326329B1, “Quinazoline derivatives useful as insecticides” (Dow AgroSciences LLC, priority 1988, dated 1989).

Legend:
Type in all cases: in vivo
[1] = system: Southern corn rootworm (Diabrotica undecimpuctata howardi Barber); experiment: Mite/insect screen, soil treatment (CRW); details: percent mortality, soil treatment; for mortality at 24 ppm / mortality at 12 ppm: Diabrotica, read-out: CRW RESULTS %; for mortality at 12 ppm: CRW rate 12.00 ppm
Description: (§1) The compounds of Examples 1-203 were tested for miticidal and insecticidal activity in the following mite/insect screen.
(§2) Each test compound was formulated by dissolving the compound in acetone/alcohol (50:50) mixture containing 23 g of "TOXIMUL R" (sulfonate/nonionic emulsifier blend) and 13 g of "TOXIMUL S" (sulfonate/nonionic emulsifier blend) per liter. These mixtures were then diluted with water to give the indicated concentrations.
Activity on Southern corn rootworm (Diabrotica undecimpuctata howardi Barber) was evaluated by adding two ml of tap water, a presoaked corn seed, and 15 g of dry sandy soil to a one ounce plastic container. The soil was treated with 1 mL of test solution containing a pre-determined concentration of test compound. After six to 12 hours of drying, five 2-3 instar corn rootworm larvae were added to the individual cups, which were then capped and held at 23°C.
(§3) After standard exposure periods, percent mortality and phytotoxicity were evaluated. […]

[2] = system: Erysiphe graminis tritici (powdery mildew); experiment: Greenhouse Test 1, foliar spray fungicide screen (POWD MDEW), host wheat; details: disease control rating, 400 ppm (+++ at 100 ppm)
[3] = system: Puccinia recondita tritici (leaf rust); experiment: Greenhouse Test 1, foliar spray fungicide screen (LEAF RUST), host wheat; details: disease control rating, 400 ppm (+++ at 100 ppm)
[4] = system: southern armyworm (Spodopetra eridania Cramer); experiment: Mite/insect screen, sprayed squash leaves (SAW); details: percent mortality; for mortality at 400 ppm / mortality at 200 ppm: Spodoptera eridania, read-out: SAW RESULTS %; for mortality at 200 ppm: spray rate 200 ppm
Description: as §1, §2
(§4) Other plants in the same treatment pot were left uninfested. The leaves were then sprayed with 5 ml of test solution using a DeVilbiss atomizing sprayer at 10 psi. Both surfaces of the leaves were covered until runoff, and then allowed to dry for one hour. Two uninfested leaves were then excised and placed into a Petri dish containing larval southern armyworm (Spodopetra eridania Cramer).
as §3

[5] = system: Pseudoperonospora cubensis (downy mildew); experiment: Greenhouse Test 1, foliar spray fungicide screen (DOWN MDEW), host squash; details: disease control rating, 400 ppm (+++ at 100 ppm)
[6] = system: Twospotted spider mites (Tetranychus urticae Koch); experiment: Mite/insect screen, sprayed squash cotyledons (SM); details: percent mortality; for mortality at 400 ppm / mortality at 200 ppm: Tetranychus urticae, read-out: SM RESULTS %; for mortality at 200 ppm: spray rate 200 ppm
Description: as §1, §2, §4, §3

[7] = system: Pyricularia oryzae (rice blast); details: disease control rating, foliar spray, host rice; 400 ppm (+++ at 100 ppm)
[8] = system: Botrytis cinerea (gray mold); experiment: Greenhouse Test 1, foliar spray fungicide screen (GRAY MOLD), host grape berries; details: disease control rating, 400 ppm (+++ at 100 ppm)
[9] = system: melon aphids (Aphis gossypii Glover); experiment: Mite/insect screen, sprayed squash cotyledons (MA); details: percent mortality; for mortality at 400 ppm / mortality at 200 ppm: Aphis gossypii, read-out: MA RESULTS %; for mortality at 200 ppm: spray rate 200 ppm
Description: as §1, §2, §4, §3

Compound | mortality at 24 ppm ([1]; CRW rate 24.00 ppm) | POWD MDEW [2] | LEAF RUST [3] | mortality at 400 ppm ([4]; spray rate 400 ppm) | DOWN MDEW [5] | mortality at 400 ppm ([6]; spray rate 400 ppm) | RICE BLAST [7] | GRAY MOLD [8] | mortality at 400 ppm ([9]; spray rate 400 ppm) | mortality at 12 ppm [1] | mortality at 200 ppm [4] | mortality at 200 ppm [6] | mortality at 200 ppm [9] | CRW RESULTS % ([1]; CRW rate 24.00 ppm) | SAW RESULTS % ([4]; spray rate 400 ppm) | SM RESULTS % ([6]; spray rate 400 ppm) | MA RESULTS % ([9]; spray rate 400 ppm)
CC(COc1ncnc2ccccc12)c1ccccc1 (stereo not drawn) [Example 60, 4-(2-phenylpropoxy)quinazoline] | 0% | + (+ = 20-89% control at 400 ppm) | + (+ = 20-89% control at 400 ppm) | 0% | ++ (++ = 90-100% control at 400 ppm) | 100% | +++ (+++ = 90-100% control at 100 ppm) | - (- = 0-19% control at 400 ppm) | 100% |  |  |  |  |  |  |  | 
c1ccc(Oc2ccc(CCCOc3ncnc4ccccc34)cc2)cc1 [Example 151, 4-[3-(4-phenoxyphenyl)propoxy]quinazoline] | 0% | + (+ = 20-89% control at 400 ppm) | - (- = 0-19% control at 400 ppm) | 0% | - (- = 0-19% control at 400 ppm) | 0% | - (- = 0-19% control at 400 ppm) | - (- = 0-19% control at 400 ppm) | 0% | 0% | 0% | 0% | 80% |  |  |  | 
Fc1cccc2c(OCCCc3ccc(Oc4ccccc4)cc3)ncnc12 [Example 119, 8-fluoro-4-[3-(4-phenoxyphenyl)propoxy]quinazoline] | 0% | + (+ = 20-89% control at 400 ppm) | + (+ = 20-89% control at 400 ppm) | 90% | - (- = 0-19% control at 400 ppm) | 0% | ++ (++ = 90-100% control at 400 ppm) | - (- = 0-19% control at 400 ppm) | 0% | 0% | 0% | 50% | 80% |  |  |  | 
c1ccc2c(CCOc3ncnc4ccccc34)cccc2c1 [Example 91, 4-[2-(1-naphthyl)ethoxy]quinazoline] | 0% | + (+ = 20-89% control at 400 ppm) | + (+ = 20-89% control at 400 ppm) | 0% | ++ (++ = 90-100% control at 400 ppm) | 0% | ++ (++ = 90-100% control at 400 ppm) | - (- = 0-19% control at 400 ppm) | 0% | 0% | 0% | 0% | 0% |  |  |  | 
c1ccc2cc(CCNc3nc(NCCc4ccc5ccccc5c4)c4ccccc4n3)ccc2c1 [Example 32, N,N'-bis[2-(2-naphthyl)ethyl]-2,4-quinazolinediamine] | 0% | - (- = 0-19% control at 400 ppm) | - (- = 0-19% control at 400 ppm) | 0% | + (+ = 20-89% control at 400 ppm) | 0% | - (- = 0-19% control at 400 ppm) | - (- = 0-19% control at 400 ppm) | 0% | 0% | 0% | 0% | 0% |  |  |  | 
Clc1ccc2ncnc(NCCc3ccc(-c4ccccc4)cc3)c2c1 [Example 90, 6-chloro-N-[2-(1,1'-biphenyl)-4-ylethyl]-4-quinazolinamine] | 0% | + (+ = 20-89% control at 400 ppm) | + (+ = 20-89% control at 400 ppm) | 100% | +++ (+++ = 90-100% control at 100 ppm) | 0% | + (+ = 20-89% control at 400 ppm) | - (- = 0-19% control at 400 ppm) | 0% | 0% | 0% | 100% | 80% |  |  |  | 
CC(C)c1ccc(CCCc2ncnc3ccccc23)cc1 [Example 126, 4-[3-[4-(1-methylethyl)phenyl]propyl]quinazoline] | 0% | + (+ = 20-89% control at 400 ppm) | + (+ = 20-89% control at 400 ppm) | 0% | ++ (++ = 90-100% control at 400 ppm) | 100% | +++ (+++ = 90-100% control at 100 ppm) | - (- = 0-19% control at 400 ppm) | 80% | 0% | 0% | 100% | 100% |  |  |  | 
Fc1cccc2c(OCCC3CCCCC3)ncnc12 [Example 70, 4-(2-cyclohexylethoxy)-8-fluoroquinazoline] | 0% | + (+ = 20-89% control at 400 ppm) | + (+ = 20-89% control at 400 ppm) | 0% | + (+ = 20-89% control at 400 ppm) | 80% | +++ (+++ = 90-100% control at 100 ppm) | - (- = 0-19% control at 400 ppm) | 0% |  |  |  |  |  |  |  | 
[3-(3-methoxyphenyl)propyl]quinazoline [Example 72] |  | ++ (++ = 90-100% control at 400 ppm) | +++ (+++ = 90-100% control at 100 ppm) |  | ++ (++ = 90-100% control at 400 ppm) |  | + (+ = 20-89% control at 400 ppm) | - (- = 0-19% control at 400 ppm) |  |  |  |  |  | 0% | 100% | 0% | 0%
CC(C)c1ccc(CCNc2ncnc3c(F)cccc23)cc1 [Example 96, 8-fluoro-N-[2-[4-(i-propyl)phenyl]ethyl]-4-quinazolinamine] | 0% | +++ (+++ = 90-100% control at 100 ppm) | +++ (+++ = 90-100% control at 100 ppm) | 100% | +++ (+++ = 90-100% control at 100 ppm) | 0% | +++ (+++ = 90-100% control at 100 ppm) | - (- = 0-19% control at 400 ppm) | 0% | 0% | 100% | 50% | 50% |  |  |  | 
CC(C)c1cccc(C(C)C)c1OCCOc1ncnc2ccccc12 [Example 181, 4-[2-[2,6-bis(i-propyl)phenoxy]ethoxy]quinazoline] | 0% | ++ (++ = 90-100% control at 400 ppm) | - (- = 0-19% control at 400 ppm) | 0% | + (+ = 20-89% control at 400 ppm) | 40% | + (+ = 20-89% control at 400 ppm) | - (- = 0-19% control at 400 ppm) | 50% | 0% | 0% | 0% | 60% |  |  |  | 
c1ccc2c(c1)Cc1cc(CCOc3ncnc4ccccc34)ccc1-2 [Example 20, 4-[2-(9H-fluoren-2-yl)ethoxy]quinazoline] | 100% | ++ (++ = 90-100% control at 400 ppm) | + (+ = 20-89% control at 400 ppm) | 60% | + (+ = 20-89% control at 400 ppm) | 100% | ++ (++ = 90-100% control at 400 ppm) |  | 100% |  |  |  |  |  |  |  | 
FC(F)(F)c1ccc(CCOc2ncnc3ccccc23)cc1 [Example 134, 4-[2-[4-(trifluoromethyl)phenyl]ethoxy]quinazoline] | 0% | +++ (+++ = 90-100% control at 100 ppm) | +++ (+++ = 90-100% control at 100 ppm) | 100% |  | 100% | +++ (+++ = 90-100% control at 100 ppm) |  | 100% | 0% | 60% | 90% | 100% |  |  |  | 
